How the values were obtained:
Bacillus thuringiensis = experiment: Antimicrobial activity Bacillus thuringiensis at 2 mg/mL after 24 hrs by agar diffusion technique; format: functional; conditions: read-out: DIZ
Escherichia coli = experiment: Antimicrobial activity Escherichia coli at 2 mg/mL after 24 hrs by agar diffusion technique; format: functional; conditions: read-out: DIZ

Row | SMILES | zone of inhibition at 2000 µg/mL (Bacillus thuringiensis) | zone of inhibition at 2000 µg/mL (Escherichia coli)
1 | O=C1C2C3c4ccccc4C(c4ccccc43)C2C(=O)N1c1ccccc1S (stereo not drawn) | 18 mm | 16 mm
2 | O=C1C2C3c4ccccc4C(c4ccccc43)C2C(=O)N1c1ccccc1O (stereo not drawn) | 17 mm | 16 mm
3 | CCOC(=O)c1c(N2C(=O)C3C4c5ccccc5C(c5ccccc54)C3C2=O)sc2c1CCCC2 (stereo not drawn) | 15 mm | 14 mm
4 | O=C1C2C3c4ccccc4C(c4ccccc43)C2C(=O)N1C(CO)(CO)CO (stereo not drawn) | 15 mm | 14 mm
5 | Cc1ccc2nc(N3C(=O)C4C5c6ccccc6C(c6ccccc65)C4C3=O)sc2c1 (stereo not drawn) | 26 mm | 29 mm
6 | O=C1C2C3c4ccccc4C(c4ccccc43)C2C(=O)N1c1ccc(/N=N/c2ccccc2)cc1 (stereo not drawn) | 13 mm | 14 mm
7 | Cc1ccc(/N=N/c2ccc(N3C(=O)C4C5c6ccccc6C(c6ccccc65)C4C3=O)cc2)cc1 (stereo not drawn) | 11 mm | 14 mm
8 | Cc1ccc(S(=O)(=O)Oc2ccccc2N2C(=O)C3C4c5ccccc5C(c5ccccc54)C3C2=O)cc1 (stereo not drawn) | 15 mm | 18 mm
9 | CC(=O)c1ccc(N2C(=O)C3C4c5ccccc5C(c5ccccc54)C3C2=O)cc1 (stereo not drawn) | 15 mm | 12 mm
10 | O=C1/C(=N\c2ccccc2N2C(=O)C3C4c5ccccc5C(c5ccccc54)C3C2=O)C=C(Nc2ccccc2N2C(=O)C3C4c5ccccc5C(c5ccccc54)C3C2=O)c2ccccc21 (stereo not drawn) | 17 mm | 17 mm
11 | O=C1C2C3c4ccccc4C(c4ccccc43)C2C(=O)N1c1ccccc1SSc1ccccc1N1C(=O)C2C3c4ccccc4C(c4ccccc43)C2C1=O (stereo not drawn) | 17 mm | 17 mm
12 | O=C(c1ccc(N2C(=O)C3C4c5ccccc5C(c5ccccc54)C3C2=O)cc1)C(Br)Br (stereo not drawn) | 17 mm | 14 mm
13 | O=C1C2C3c4ccccc4C(c4ccccc43)C2C(=O)N1c1nc[nH]n1 (stereo not drawn) | 17 mm | 15 mm
14 | O=C(c1ccc(N2C(=O)C3C4c5ccccc5C(c5ccccc54)C3C2=O)cc1)c1nc2ccccc2[nH]1 (stereo not drawn) | 20 mm | 23 mm
15 | COC(=O)n1c(C2C3c4ccccc4C(c4ccccc43)C2C(=O)O)nc2ccccc21 (stereo not drawn) | 17 mm | 13 mm
16 | Nc1ccccc1N1C(=O)C2C3c4ccccc4C(c4ccccc43)C2C1=O (stereo not drawn) | 17 mm | 12 mm
17 | CC(=O)Nc1ccccc1N1C(=O)C2C3c4ccccc4C(c4ccccc43)C2C1=O (stereo not drawn) | 18 mm | 16 mm
18 | CC1(C)S[C@@H]2[C@H](NC(=O)[C@H](N)c3ccccc3)C(=O)N2[C@H]1C(=O)O [AMPICILLIN] | 18 mm | 19 mm
19 | O=C(N[C@H](CO)[C@H](O)c1ccc([N+](=O)[O-])cc1)C(Cl)Cl [CHLORAMPHENICOL] | 23 mm | 20 mm
